# From US11884675B2, “Heterocyclic compounds as triggering receptor expressed on myeloid cells 2 agonists and methods of use” (AMGEN INC., priority 2020, dated 2024)
# Marks after values point to notes of the source that are not given here.
# Key:
# [1] = test system: hTREM2-CV knock-in transgenic mice; experiment: Nanostring nCounter Murine Neuroinflammation panel, Cell Type Profiling scores in hippocampi; assay type: in vivo, mouse
# Description: (§1) Nanostring analysis of gene expression profiles after administration of Example 192 and a TREM2 agonist antibody in a mouse model
# (§2) To assess the impact of TREM2 agonism on cellular processes and pathways, the right hemisphere hippocampi from the acute dosing of the compound of Example 192 and […] Ab-1, as described in Example A3, were analyzed for gene expression changes. Cells from frozen hippocampi were lysed, and RNA was isolated. Key gene expression profiles were analyzed using the nCounter Murine Neuroinflammation panel of 770 genes related to inflammation in the CNS. Results of individual gene expression changes relative to the mean of several housekeeper genes were grouped in pathways of interest and assigned a relative score using the nSolver analysis software.
# (§3) Nanostring nSolver software includes a module for Cell Type Profiling that identifies genes linked to cell type in an experiment. […] Pathway analysis was also performed. Genes associated with the adaptive immune response, innate immune response, microglia function, cytokine signalling, and cell cycle were all increased in hippocampi from animals treated with the compound of Example 192 and Ab-1. Table 22 reports the effects of the compound of Example 192 and Ab-1 on these genes, where the values reflect PC1 scores from principal component analysis of the gene set.
# hTREM2 = hTREM2 (Homo sapiens, UniProt Q9NZC2); experiment: TREM2 activity by cellular Syk phosphorylation (AlphaScreen/AlphaLISA) in TREM2/DAP12-HEK cells, used for Examples 1-305; assay type: cell-based; parameters: expressed in transfected cells; conditions: HEK293 Cells
# hTREM2, sequence (Q9NZC2 19-230): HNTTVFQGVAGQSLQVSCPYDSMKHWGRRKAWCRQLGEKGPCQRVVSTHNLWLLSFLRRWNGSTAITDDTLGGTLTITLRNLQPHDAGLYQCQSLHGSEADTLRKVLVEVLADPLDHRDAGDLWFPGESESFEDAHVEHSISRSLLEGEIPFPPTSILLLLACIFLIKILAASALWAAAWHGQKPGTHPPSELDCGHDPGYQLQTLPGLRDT
# hTREM2, sequence (O43914 22-113 partner): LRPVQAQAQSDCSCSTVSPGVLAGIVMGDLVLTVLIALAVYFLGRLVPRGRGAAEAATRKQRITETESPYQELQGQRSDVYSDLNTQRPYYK
# Procedure, shortened: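 Phospho-Syk (Tyr525/526) over total Syk quantified by AlphaScreen in lysates of cloned TREM2/DAP12-overexpressing HEK293 cells after 45 min compound treatment at room temperature, 1% final DMSO. Values expressed relative to 100 nM anti-TREM2 antibody (positive) and isotype IgG (negative) controls; curves fitted with 4-parameter logistic model.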
# [2] = test system: hTREM2-CV knock-in transgenic mice; experiment: IP-10 and CCL2 expression in brain and plasma of mice after acute dosing (TREM2 target engagement, MSD V-PLEX); assay type: in vivo, mouse; conditions: 24 hours
# Description: IP-10 expression in the brain and plasma of mice after administration of Example 192 and a TREM2 agonist antibody
# To test TREM2 target engagement in an acute dosing paradigm using the compound of Example 192 (5-(4-chloro-2-fluorophenyl)-2,3-dimethyl-7-((2R,4S)-2-(1-methyl-1H-pyrazol-4-yl) tetrahydro-2H-pyran-4-yl)pyrido[3,4-b]pyrazine), hTREM2-CV knock-in transgenic mice were dosed using oral gavage (PO) twice a day (0 and 10 h) followed by sample collection at 24 hours. 6 animals received the compound of Example 192 at 50 mg/kg, and 6 animals received vehicle only (2% Hydroxypropyl Methylcellulose, 1% Tween-80 in PBS). In the same experiment, an anti-hTREM2 Antibody Ab-1 was dosed intraperitoneally (IP) at 100 mg/kg (control was a non-binding matched IgG isotype control). Ab-1 is a murinized version of a human TREM2 agonist antibody, first described as an engineered variant of antibody 13E7 in PCT Application Publication WO2018/195506A1. Ab-1 has an HC according to SEQ ID NO:9, an LC according to SEQ ID NO:10, and exemplifies an anti-TREM2 antibody having the CDRs according to SEQ ID NOS:1-6. Twenty-four hours following the zero-hour dose, mice were humanely euthanized for blood collection prior to cardiac perfusion with PBS and brain harvest. Brains were micro dissected into right and left regions of interest (including the cortex and hippocampus) for independent processing of cytokine and mRNA expression profiles. Whole blood was collected into EDTA-containing vials to prevent coagulation, and centrifuged to isolate the plasma fraction before storage at −80° C. Right and left hemisphere cortices were flash frozen in liquid nitrogen and stored at −80° C. before lysis and homogenization.
# Plasma and brain lysates were analyzed for IP-10 (CXCL10) and CCL2 (MCP1) expression using a Meso Scale Discovery (MSD) multi-array reader and V-PLEX kits per manufacturer's protocols.
# The upregulation of IP-10 was more robust, and so IP-10 levels were analyzed in plasma from the same experiment.
# [3] = test system: hTREM2-CV knock-in transgenic mice; experiment: Nanostring nCounter Murine Neuroinflammation panel, pathway analysis (PC1 scores) in hippocampi; assay type: in vivo, mouse
# Description: as §1, §2, §3
# [4] = hippocampi after acute dosing, mean score (standard deviation)
# [5] = right hemisphere hippocampi, acute dosing as in Example A3
# [6] = Example 192 50 mg/kg PO at 0 and 10 h, Ab-1 100 mg/kg IP, compared to vehicle-treated animals
# [7] = PC1 score, mean score (standard deviation)
smiles,measurement,setting,value
"Cc1nc2cc([C@H]3CCO[C@@H](c4cnn(C)c4)C3)nc(-c3ccc(Cl)cc3F)c2nc1C (single isomer, unassigned) [Example 192]",Microglia Score (Cell Type Profiling),[1]; [4],6.82 (0.090) *
same,astrocyte score (Cell Type Profiling),[1]; [4],8.86 (0.077)
same,neuron score (Cell Type Profiling),[1]; [4],8.81 (0.185)
same,astrocyte score (Cell Type Profiling),[1]; [5],no change
same,"microglia score (Cell Type Profiling, microglial-associated genes)",[1]; [5],increase
same,neuron score (Cell Type Profiling),[1]; [5],no change
same,EC50,hTREM2,≤ 0.05 µM
same,hTREM2 Emax,hTREM2,++++ (Emax>250)
same,peripheral IP-10 levels in the plasma fraction,[2]; 50 mg/kg PO at 0 and 10 h,no apparent cytokine upregulation
same,CCL2 (MCP1) in cortical lysates,[2]; [6],induced upregulation
same,IP-10 (CXCL10) in cortical lysates,[2]; [6],induced upregulation
same,Pathway Score Adaptive Immune Response,[3]; [7],0.639 (0.929) *
same,Pathway Score Cell Cycle,[3]; [7],0.398 (0.414) *
same,Pathway Score Cytokine Signaling,[3]; [7],0.180 (0.514) *
same,Pathway Score Innate Immune Response,[3]; [7],0.490 (0.674) *
same,Pathway Score Microglia Function,[3]; [7],0.345 (0.908) *
same,genes associated with cell cycle,[3]; acute dosing as in Example A3,increased
same,genes associated with cytokine signalling,[3]; acute dosing as in Example A3,increased
same,genes associated with microglia function,[3]; acute dosing as in Example A3,increased
same,genes associated with the adaptive immune response,[3]; acute dosing as in Example A3,increased
same,genes associated with the innate immune response,[3]; acute dosing as in Example A3,increased
